Test [1] deals with phospho-AKT, phospho-ERK and phospho-BTK. The test can be described thus: SDF-1a triggered AKT, ERK and BTK signaling (phosphoflow, immunoblotting) in transduced BCWM.1 cells. It is filed as cell-based. Background: Immunoblotting shows a protein as a band on a membrane.
Test [2] relates to BCWM.1 WM cells. The test can be described thus: Annexin V staining (apoptosis) of CXCR4 frameshift/nonsense mutant expressing BCWM.1 cells, Example 6. In kind it is cell-based. Particulars: CXCR4^T311fs and CXCR4^S344fs cells; for SDF-1a rescue of ibrutinib or idelalisib treated cells: MK-2206 0.5 uM, AS-703026 0.25 uM, 18 hours. From the text:
CXCR4^WT, CXCR4^FS, CXCR4^S338X cDNAs were subcloned into plenti-IRES-GFP vector, and transduced using a lentiviral based strategy into BCWM.1 WM cells as before (Cao et al, 2014; Yang et al, 2013). Frameshift mutations proximal and distal to CXCR4^S338X that were identified in WM patients by WGS were studied (FIG. 11). […] The nonsense mutation CXCR4^S338X resulted from C>G change at 136872485 (Hunter et al, 2013). Five days after transduction, GFP positive cells were sorted and used for functional studies. Surface CXCR4 expression was determined at baseline, and following stimulation for 30 minutes with SDF-1a (10-100 nM) as before (Cao et al, 2014). Phosphoflow experiments were performed using conjugated antibodies to phospho-ERK1/2 (T^202/Y^204) and phospho-AKT(S^473) (BD Phosflow) as previously described (Cao et al, 2014). […] Survival studies related to AKT and ERK were performed in the presence or absence AKT (MK-2206, 0.5 uM) or MEK (AS-703026, 0.25 uM) specific inhibitors (Selleck Chemicals, Houston Tex.) as previously reported (Cao et al, 2014).

Test [3] has as its system BCWM.1 and MWCL-1 cells. The test can be described thus: Annexin V staining (apoptosis), Example 5. In kind it is cell-based. Particulars: 18 hours.
The test system of the next test is CXCR4^S338X BCWM.1 cells. The test can be described thus: PARP and caspase 3 cleavage by immunoblotting (apoptosis), BCWM.1. In kind it is cell-based. The conditions noted are these: for level of SDF-1a mediated rescue from PARP and caspase 3 cleavage: agents at EC50 dose ranges, 6 hours, SDF-1a 20 nM.
The subject of another test is CXCR4^S338X MWCL-1 cells. The test can be described thus: PARP and caspase 3 cleavage by immunoblotting (apoptosis), MWCL-1. It is filed as cell-based. Particulars: for level of SDF-1a mediated rescue from PARP and caspase 3 cleavage: agents at EC50 dose ranges, 6 hours, SDF-1a 20 nM.
A further test concerns CXCR4. The test can be described thus: Cell surface CXCR4 expression by flow cytometry in transfected WM cells. In kind it is cell-based. Here is the method:
(§1) Five days after transduction, GFP positive cells were sorted and used for functional studies. Surface expression of CXCR4 was determined by flow cytometric analysis using a PE-conjugated anti-CXCR4 monoclonal antibody (BD Biosciences, San Jose Calif.). Transduced cell lines were stimulated with or without SDF-1a (10-100 nM), and cell surface expression of CXCR4 determined on CXCR4^WT and S338X transduced cells. CXCR4 expression levels were calculated as: [(receptor geometric mean fluorescence intensity [MFI] of treated cells-MFI of isotype IgG control)/(receptor geometric MFI of unstimulated cells-MFI of isotype IgG control)]×100.
A general note: Flow cytometry measures light scatter and fluorescence of single cells or particles in a stream.

The test system of a further test is pAKT and pERK. The test can be described thus: Immunohistochemical staining for pAKT and pERK in bone marrow of WM patients on ibrutinib. In kind it is in vivo, human.
For test [4], the system named is BCWM.1 WM cells. The conditions noted are these: CXCR4 S338X transduced cells; 30 nM AMD3100; p<0.005. From the text: Five days after transduction, GFP positive cells were sorted and used for functional studies.
The test system of another test is WHIM patients. Particulars: WHIM patients treated daily for 6 months; cited from earlier work.
The test system of test [5] is BCWM.1 and MWCL-1 cells. Particulars: CXCR4^S338X expressing cells; co-treatment ibrutinib and AMD3100 30 uM. The procedure: as §1
Where [6] appears, read: CXCR4^S338X BCWM.1 and MWCL-1 cells.
[7] abbreviates: SDF-1a cultured CXCR4^S338X BCWM.1 cells, AS-703026 0.25 uM, AZD-6244 0.5 uM, U0126 5.0 uM.
[8] abbreviates: CXCR4^WT and CXCR4^S338X expressing BCWM.1 cells, pre-treatment 2 hours, AMD3100 30 uM or pertussis toxin 500 ng, SDF-1a 20 nM.

The source of these data is patent publication US10526660B2, “Methods for evaluating and treating Waldenstrom's macroglobulinemia” (Dana-Farber Cancer Institute, Inc., priority 2013, dated 2020).

Like-named read-outs stand apart in the source and are kept apart here.

As for `N#CC(=C(/N)Sc1ccccc1N)/C(C#N)=C(\N)Sc1ccccc1N` [U0126], in test [1], the “inhibitory activity by western blot analysis for pERK (T202/Y204)” value (shortened to “inhibitory activity … (T202/Y204)”) is given as “confirmed”.

Consider AZD-5363, for which the “inhibitory effect on AKT (phospho-activity of downstream targets GKS3β and pS6)” value in test [1] (CXCR4^S338X BCWM.1 cells, 0.5 uM) was “confirmed by inhibition of the phospho-activity”.

Consider `NC1(c2ccc(-c3nc4ccn5c(=O)[nH]nc5c4cc3-c3ccccc3)cc2)CCC1` [MK-2206], for which the “SDF-1a rescue of ibrutinib or idelalisib treated cells” value in the test with BCWM.1 WM cells [2] is given as “attenuated SDF-1a rescue”. Besides, the “inhibitory activity by western blot analysis for pAKT (S473)” value in [1] (SDF-1a cultured CXCR4^S338X BCWM.1 cells, 0.5 uM) was “confirmed”.

On to `CC[C@H](Nc1ncnc2[nH]cnc12)c1nc2cccc(F)c2c(=O)n1-c1ccccc1` [idelalisib], for which the “Annexin V studies: SDF-1a rescue” value in the test with BCWM.1 and MWCL-1 cells [3] (setting [6]) was “pronounced rescue by SDF-1a”. For the same compound, the “level of SDF-1a mediated rescue from PARP and caspase 3 cleavage” value (shortened to “level of SDF-1a mediated rescue”) is “strong” in the test on CXCR4^S338X BCWM.1 cells and “moderate level of rescue” in the test on CXCR4^S338X MWCL-1 cells.

As for `Cn1c(CCCC(=O)O)nc2cc(N(CCCl)CCCl)ccc21` [bendamustine], the “level of SDF-1a mediated rescue” value with CXCR4^S338X BCWM.1 cells was “moderate”; in the test with CXCR4^S338X MWCL-1 cells, “little to no SDF-1a rescue”.

In the case of `Cn1cnc2c(F)c(Nc3ccc(Br)cc3Cl)c(C(=O)NOCCO)cc21` [AZD-6244], the “inhibitory activity … (T202/Y204)” value in [1] (setting [7]) was “confirmed”.

With `CC(C)C[C@H](NC(=O)[C@H](Cc1ccccc1)NC(=O)c1cnccn1)B(O)O` [bortezomib], the “level of SDF-1a mediated rescue” value is “moderate” in the test with CXCR4^S338X BCWM.1 cells and “lesser levels of rescue” in the test with CXCR4^S338X MWCL-1 cells.

Turning to `C=CC(=O)N1CCC[C@@H](n2nc(-c3ccc(Oc4ccccc4)cc3)c3c(N)ncnc32)C1` [ibrutinib, 1-[(3R)-3-[4-amino-3-(4-phenoxyphenyl)pyrazolo[3,4-d]pyrimidin-1-yl]piperidin-1-yl]prop-2-en-1-one], the “cell surface CXCR4 expression following ibrutinib treatment” value in the test with CXCR4 (CXCR4^WT or CXCR4^S338X expressing WM cells, 0.5, 1, 2, and 6 hours) is on record as “little or no significant changes”. Besides, the “SDF-1a related changes in cell surface CXCR4 expression” value with CXCR4 (vector only, CXCR4^WT and CXCR4^S338X transfected WM cells, addition of ibrutinib) is reported as “did not affect”. In addition, the “pAKT staining in bone marrow on continuous ibrutinib therapy” value in the test with pAKT and pERK (CXCR4^WHIM patients, 6 months) was “remained robust without any changes from baseline”. In addition, the “pAKT staining in bone marrow on continuous ibrutinib therapy” value with pAKT and pERK (CXCR4^WT patients) was “marginal pAKT staining”. In addition, the “pERK staining in bone marrow despite ibrutinib therapy” value in the test with pAKT and pERK (all patients, regardless of CXCR4 mutation status) was “low levels of pERK staining”. Besides, the “Annexin V staining: SDF-1a effect on ibrutinib mediated apoptotic changes” value in the test with BCWM.1 and MWCL-1 cells [3] (ibrutinib plus SDF-1a) is listed as “rescue of ibrutinib mediated apoptotic changes by SDF-1a”. Besides, in test [1], the BTK signaling entry is “blocked BTK signaling”; the “SDF-1a triggered AKT and ERK activation” value is “attenuated”; the “SDF-1a triggered AKT and ERK signaling” value is recorded as “did not show attenuation”.

`O=C(NC[C@H](O)CO)c1ccncc1Nc1ccc(I)cc1F` [AS-703026]: the “SDF-1a rescue of ibrutinib or idelalisib treated cells” value in the test on BCWM.1 WM cells [2] is on record as “attenuated SDF-1a rescue”. The “inhibitory activity … (T202/Y204)” value in test [1] (setting [7]) is “confirmed”.

For `c1cc(CN2CCCNCCNCCCNCC2)ccc1CN1CCCNCCNCCCNCC1` [AMD3100], the “effect of concurrent CXCR4 antagonist on ibrutinib apoptosis in SDF-1a exposed cells” value in the test with BCWM.1 WM cells [2] (CXCR4^S338X, plerixafor 30 uM) is reported as “restored the pro-apoptotic effects of ibrutinib”. In addition, the “Annexin V staining: effect of adding AMD3100 to cells treated with ibrutinib and SDF-1a” value in the test on BCWM.1 and MWCL-1 cells [3] was “restoration of apoptotic changes”. For the same compound, the “Annexin V studies: effect of AMD3100 on SDF-1a rescue of idelalisib treated cells” value with BCWM.1 and MWCL-1 cells [3] (setting [6]) is “reversal of rescue”. For the same compound, the “reversal of SDF-1a mediated rescue by co-treatment with AMD3100” value in the test on CXCR4^S338X BCWM.1 cells (all agents (bendamustine, fludarabine, bortezomib, idelalisib), AMD3100 30 uM) was “reversal of rescue”. The “block of CXCL12 rescue from ibrutinib growth effect” value in the test on BCWM.1 WM cells [4] is “rescue could be blocked”. The “SDF-1a triggered AKT and ERK activation” value in test [1] (setting [8]) was “blocked both AKT and ERK activation”. For the same compound, in the test with WHIM patients, the myelokathexis related leukopenia entry is “reversed myelokathexis related leukopenia”. Besides, the “reversal of SDF-1a rescue by co-treatment with AMD3100” value in the test with CXCR4^S338X MWCL-1 cells (idelalisib, fludarabine and bortezomib treated cells, AMD3100 30 uM) is on record as “reversal of SDF1-a rescue”. Besides, the “reversal of SDF-1a rescue from ibrutinib induced apoptosis” value in the test with BCWM.1 and MWCL-1 cells [5] was “could be reversed”.

Consider `Nc1nc(F)nc2c1ncn2[C@@H]1O[C@H](CO)[C@@H](O)[C@@H]1O` [fludarabine], for which the results for the “level of SDF-1a mediated rescue” value in the test with CXCR4^S338X BCWM.1 cells and with CXCR4^S338X MWCL-1 cells were “moderate” and “lesser levels of rescue”, respectively.

As for pertussis toxin, in test [1] (setting [8]), the “SDF-1a triggered AKT and ERK activation” value was “blocked both AKT and ERK activation”.
